From patent publication US9193722B2, “Tri-cyclic pyrazolopyridine kinase inhibitors” (Vertex Pharmaceuticals Incorporated, priority 2008, dated 2015) come the findings set out here.

Common to all, as to type: biochemical
One experiment has as its target PKC theta kinase (Homo sapiens, UniProt Q04759). The experiment is described as follows: PKC theta kinase inhibition, coupled-enzyme (NADH absorbance) assay, Ki. To be noted: 240 μM ATP, 18 nM PKC theta kinase, 30° C. The protocol:
An assay buffer solution was prepared which consisted of 100 mM HEPES (pH 7.5), 10 mM MgCl2, 25 mM NaCl, 0.1 mM EDTA and 0.01% Brij. […] To 60 μL of this enzyme buffer, in a 384 well plate, was added 2 μL of VRT stock solution in DMSO. The mixture was allowed to equilibrate for 10 mins at 30° C. […] Ki values were calculated from initial rate data by non-linear regression using the Prism software package (Prism 4.0a, Graphpad Software, San Diego, Calif.).

A further experiment has as its target PKC alpha kinase (Homo sapiens, UniProt P17252). The experiment is described as follows: PKC alpha kinase inhibition, coupled-enzyme (NADH absorbance) assay, Ki. To be noted: 130 μM ATP, 4.5 nM PKC alpha kinase, 30° C. The method, then: (§1) An assay buffer solution was prepared which consisted of 100 mM HEPES (pH 7.5), 10 mM MgCl2, 25 mM NaCl, 0.1 mM EDTA, 100 μM CaCl2 and 0.01% Brij. […] To 16 μL of this enzyme buffer, in a 384 well plate, was added 1 μL of VRT stock solution in DMSO. The mixture was allowed to equilibrate for 10 mins at 30° C. The enzyme reaction was initiated by the addition of 16 μL stock ATP solution prepared in assay buffer to a final assay concentration of 130 μM. Initial rate data was determined from the rate of change of absorbance at 340 nm (corresponding to stoichiometric consumption of NADH) using a Molecular Devices Spectramax plate reader (Sunnyvale, Calif.) over 15 mins at 30° C. […] Ki values were calculated from initial rate data by non-linear regression using the Prism software package (Prism 4.0a, Graphpad Software, San Diego, Calif.).

The target of the next experiment is PKC delta kinase (Homo sapiens, UniProt Q05655). The experiment is described as follows: PKC delta kinase inhibition, coupled-enzyme (NADH absorbance) assay, Ki. To be noted: 150 μM ATP, 46 nM PKC delta kinase, 30° C.; read-out: Ki PKC delta. The method, then: as §1, with “EDTA” for “EDTA, 100 μM CaCl2”, “150” for “130”
PKC delta kinase, sequence (Q05655 whole entry): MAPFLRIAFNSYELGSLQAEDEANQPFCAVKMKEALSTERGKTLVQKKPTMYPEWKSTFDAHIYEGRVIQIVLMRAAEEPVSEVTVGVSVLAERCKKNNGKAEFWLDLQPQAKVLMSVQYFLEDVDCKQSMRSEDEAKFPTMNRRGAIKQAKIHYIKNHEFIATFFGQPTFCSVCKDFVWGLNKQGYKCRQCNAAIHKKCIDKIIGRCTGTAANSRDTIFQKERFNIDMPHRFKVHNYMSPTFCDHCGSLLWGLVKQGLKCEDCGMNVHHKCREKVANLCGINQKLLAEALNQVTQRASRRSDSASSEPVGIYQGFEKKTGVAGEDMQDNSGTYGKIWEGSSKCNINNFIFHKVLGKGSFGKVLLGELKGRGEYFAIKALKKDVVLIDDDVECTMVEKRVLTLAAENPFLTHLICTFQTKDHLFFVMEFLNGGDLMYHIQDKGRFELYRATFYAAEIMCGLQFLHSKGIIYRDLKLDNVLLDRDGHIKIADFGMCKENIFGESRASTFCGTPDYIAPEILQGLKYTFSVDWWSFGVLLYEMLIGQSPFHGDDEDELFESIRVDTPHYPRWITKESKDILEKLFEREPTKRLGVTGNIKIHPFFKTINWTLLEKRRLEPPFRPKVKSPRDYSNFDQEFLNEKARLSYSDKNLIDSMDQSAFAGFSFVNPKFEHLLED

PKC theta kinase, sequence (Q04759 whole entry): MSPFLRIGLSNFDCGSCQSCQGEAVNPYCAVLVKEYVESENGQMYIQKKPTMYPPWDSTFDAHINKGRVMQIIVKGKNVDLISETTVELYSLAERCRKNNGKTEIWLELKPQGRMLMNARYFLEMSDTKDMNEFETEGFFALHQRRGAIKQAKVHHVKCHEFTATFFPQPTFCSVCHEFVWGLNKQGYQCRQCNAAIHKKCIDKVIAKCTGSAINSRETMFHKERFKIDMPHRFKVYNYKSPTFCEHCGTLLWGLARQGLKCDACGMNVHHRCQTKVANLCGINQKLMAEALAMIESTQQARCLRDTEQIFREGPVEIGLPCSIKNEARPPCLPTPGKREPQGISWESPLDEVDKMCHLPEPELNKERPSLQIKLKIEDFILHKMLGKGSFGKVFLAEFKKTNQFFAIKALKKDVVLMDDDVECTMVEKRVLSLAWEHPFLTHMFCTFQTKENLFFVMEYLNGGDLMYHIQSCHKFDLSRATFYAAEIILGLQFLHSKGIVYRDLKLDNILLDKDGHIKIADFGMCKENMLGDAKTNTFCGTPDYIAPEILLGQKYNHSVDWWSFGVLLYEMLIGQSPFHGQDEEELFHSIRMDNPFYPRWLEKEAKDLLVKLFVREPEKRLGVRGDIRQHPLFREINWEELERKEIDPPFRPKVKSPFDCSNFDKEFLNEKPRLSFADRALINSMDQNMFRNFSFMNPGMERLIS

For `C[C@H]1CN(c2cccc(-c3n[nH]c4ncc(Cl)cc34)n2)CCN1` [Compound 43], the Ki at PKC theta kinase, at PKC alpha kinase and at PKC delta kinase was under 500 nM each time.
For `CC(C)C[C@H]1CN(c2ccc(C(F)(F)F)c(-c3n[nH]c4ncc(F)cc34)n2)CCN1` [Compound 44], the Ki on PKC theta kinase was under 50 nM; at PKC alpha kinase it was under 2800 nM; on PKC delta kinase it was under 2800 nM.
As for `Fc1cnc2[nH]nc(-c3nc(N4CCNCC4)ccc3C(F)(F)F)c2c1` [Compound 45], the Ki at PKC theta kinase is under 500 nM; on PKC alpha kinase it was over 1250 nM; at PKC delta kinase, over 2000 nM.
As to `CC(C)C[C@@H]1CN(c2cccc(-c3n[nH]c4ncc(F)cc34)n2)CCN1` [Compound 46], the Ki at PKC theta kinase was under 50 nM; on PKC alpha kinase, under 2800 nM; on PKC delta kinase, under 500 nM.
With `CC(C)C[C@H]1CN(c2ccc(Cl)c(-c3n[nH]c4ncccc34)n2)CCN1` [Compound 47], the Ki at PKC theta kinase was under 50 nM; on PKC alpha kinase, under 2800 nM; at PKC delta kinase, under 500 nM.
On to `Clc1ccc(N2CCNCC2)nc1-c1n[nH]c2ncccc12` [Compound 48], for which the Ki at PKC theta kinase is under 500 nM; on PKC alpha kinase it was under 2800 nM; on PKC delta kinase, under 2800 nM.
Consider `CC(C)C[C@H]1CN(c2ccc(-c3ccccc3)c(-c3n[nH]c4ncccc34)n2)CCN1` [Compound 49], for which the figures for the Ki at PKC theta kinase, at PKC alpha kinase and on PKC delta kinase were under 500 nM, over 1250 nM and under 2800 nM, respectively.
For `c1ccc(-c2ccc(N3CCNCC3)nc2-c2n[nH]c3ncccc23)cc1` [Compound 50] the same measures were over 700 nM, over 1250 nM and over 2000 nM.
With `C=Cc1ccc(N2CCN[C@@H](CC(C)C)C2)nc1-c1n[nH]c2ncccc12` [Compound 51], the Ki is over 700 nM at PKC theta kinase, over 1250 nM on PKC alpha kinase and over 2000 nM on PKC delta kinase.
In the case of `C=Cc1ccc(N2CCNCC2)nc1-c1n[nH]c2ncccc12` [Compound 52], the Ki is under 500 nM on PKC theta kinase, over 1250 nM at PKC alpha kinase and under 2800 nM at PKC delta kinase.
In the case of `CC(F)(F)CC1CN(c2cccc(-c3n[nH]c4ncccc34)n2)CCN1` (stereo not drawn) [Compound 54], the Ki on PKC theta kinase was under 50 nM; at PKC alpha kinase it was under 2800 nM; at PKC delta kinase, under 500 nM.
In the case of `C=C(F)c1cc(-c2n[nH]c3ncccc23)nc(N2CCN[C@@H](CC(C)C)C2)c1` [Compound 55], the Ki at PKC theta kinase is under 50 nM; at PKC alpha kinase, over 1250 nM; on PKC delta kinase, under 2800 nM.
Take `Cc1cc(-c2n[nH]c3ncccc23)nc(N2CCN[C@@H](CC(C)C)C2)c1` [Compound 56]: the Ki on PKC theta kinase was under 500 nM; at PKC alpha kinase, over 1250 nM; on PKC delta kinase it was under 2800 nM.
For `CC(C)C[C@H]1CN(c2cc(C(F)(F)F)cc(-c3n[nH]c4ncccc34)n2)CCN1` [Compound 57], the Ki at PKC theta kinase was under 500 nM; at PKC alpha kinase, over 1250 nM; on PKC delta kinase it was over 2000 nM.
Consider `Cc1cc(N2CCN[C@@H](CC(C)C)C2)nc(-c2n[nH]c3ncccc23)c1Cl` [Compound 58], for which the figures for the Ki at PKC theta kinase, on PKC alpha kinase and on PKC delta kinase were under 500 nM, over 1250 nM and under 2800 nM, respectively.
Turning to `CCCC1CN(c2cccc(-c3n[nH]c4ncccc34)n2)CCN1` (stereo not drawn) [Compound 59], the Ki was under 50 nM at PKC theta kinase, under 2800 nM on PKC alpha kinase and under 500 nM at PKC delta kinase.
Consider `OC1(c2cccc(-c3n[nH]c4ncccc34)n2)CCNCC1` [Compound 60, 4-(6-(1H-pyrazolo[3,4-b]pyridin-3-yl)pyridin-2-yl)piperidin-4-ol], for which the Ki on PKC theta kinase was over 700 nM; at PKC alpha kinase, over 1250 nM; on PKC delta kinase, under 500 nM.
Consider `NC1CCN(c2cccc(-c3n[nH]c4ncccc34)n2)CC1` [Compound 61], for which the Ki is under 500 nM at PKC theta kinase, over 1250 nM at PKC alpha kinase and under 2800 nM at PKC delta kinase.
For the molecule `NC1CN(c2cccc(-c3n[nH]c4ncccc34)n2)C1` [Compound 63], the Ki at PKC theta kinase is under 2800 nM; at PKC alpha kinase, over 1250 nM; on PKC delta kinase it was over 2000 nM.
As for `NCC1CCN(c2cccc(-c3n[nH]c4ncccc34)n2)CC1` [Compound 64], the values for the Ki at PKC theta kinase, at PKC alpha kinase and at PKC delta kinase were under 500 nM, over 1250 nM and under 2800 nM, respectively.
Turning to `FC(F)(F)c1ccc(N2CCNC(C(F)(F)F)C2)nc1-c1n[nH]c2ncccc12` (stereo not drawn) [Compound 65], the Ki at PKC theta kinase is under 500 nM; on PKC alpha kinase, over 1250 nM; on PKC delta kinase, over 2000 nM.
As for `CC(C)C[C@H]1CN(c2ccnc(-c3n[nH]c4ncccc34)n2)CCN1` [Compound 66], the Ki was under 500 nM at PKC theta kinase, over 1250 nM on PKC alpha kinase and under 2800 nM at PKC delta kinase.
For `NC1CCCN(c2cccc(-c3n[nH]c4ncccc34)n2)C1` (stereo not drawn) [Compound 68] the same measures were under 500 nM, under 2800 nM and under 500 nM.
With `Cc1cc(C)c(CC2CN(c3cccc(-c4n[nH]c5ncccc45)n3)CCN2)c(C)c1` (stereo not drawn) [Compound 69], the Ki at PKC theta kinase was over 700 nM; at PKC alpha kinase it was over 1250 nM; on PKC delta kinase, over 2000 nM.
In the case of `CC(C)(F)CC1CN(c2cccc(-c3n[nH]c4ncccc34)n2)CCN1` (stereo not drawn) [Compound 71], the Ki at PKC theta kinase was under 50 nM; on PKC alpha kinase, over 1250 nM; at PKC delta kinase, under 500 nM.
With `CC(C)(O)CC1CN(c2ccc(C(F)(F)F)c(-c3n[nH]c4ncccc34)n2)CCN1` (stereo not drawn) [Compound 72], the figures for the Ki on PKC theta kinase, on PKC alpha kinase and at PKC delta kinase were under 500 nM, over 1250 nM and over 2000 nM, respectively.
For `CC(C)C[C@@H]1CC(O)(c2cccc(-c3n[nH]c4ncccc34)n2)CCN1` (stereo partly drawn) [Compound 73] the same measures were over 700 nM, over 1250 nM and over 2000 nM.
Regarding `NCC1CCCN(c2cccc(-c3n[nH]c4ncccc34)n2)C1` (stereo not drawn) [Compound 74], the Ki on PKC theta kinase was under 500 nM; at PKC alpha kinase, under 2800 nM; at PKC delta kinase, under 500 nM.
Consider `CC[C@H]1CN(c2ccc(C(F)(F)F)c(-c3n[nH]c4ncccc34)n2)CCN1` [Compound 75], for which the Ki at PKC theta kinase was under 500 nM; at PKC alpha kinase, over 1250 nM; on PKC delta kinase, under 2800 nM.
For `CC(C)(C)[C@H]1CN(c2cccc(-c3n[nH]c4ncccc34)n2)CCN1` [Compound 76], in that order: under 50 nM, under 2800 nM and under 500 nM.
For the molecule `CC(C)(C)[C@H]1CN(c2ccc(C(F)(F)F)c(-c3n[nH]c4ncccc34)n2)CCN1` [Compound 77], the values for the Ki at PKC theta kinase, at PKC alpha kinase and on PKC delta kinase were under 500 nM, over 1250 nM and over 2000 nM, respectively.
For `CC(C)(C)[C@H]1CN(c2ccc(Cl)c(-c3n[nH]c4ncccc34)n2)CCN1` [Compound 78], in that order: under 500 nM, over 1250 nM and under 2800 nM.
Turning to `CC1(C)CN(c2cccc(-c3n[nH]c4ncccc34)n2)CCN1` [Compound 79], the Ki was under 50 nM on PKC theta kinase, over 1250 nM at PKC alpha kinase and under 500 nM on PKC delta kinase.
For `CC1(C)CN(c2ccc(C(F)(F)F)c(-c3n[nH]c4ncccc34)n2)CCN1` [Compound 80], the Ki on PKC theta kinase was under 500 nM; at PKC alpha kinase it was over 1250 nM; at PKC delta kinase, under 500 nM.
On to `c1cnc2[nH]nc(-c3nccc(N4CCNCC4)n3)c2c1` [Compound 81, 3-(4-(piperazin-1-yl)pyrimidin-2-yl)-1H-pyrazolo[3,4-b]pyridine], for which the Ki at PKC theta kinase is over 700 nM; on PKC alpha kinase it was over 1250 nM; on PKC delta kinase, over 2000 nM.
`CC(C)CC1(C)CN(c2ccc(C(F)(F)F)c(-c3n[nH]c4ncccc34)n2)CCN1` (stereo not drawn) [Compound 82]: the Ki was under 50 nM at PKC theta kinase, under 500 nM at PKC alpha kinase and under 500 nM at PKC delta kinase.
With `FC1(c2cccc(-c3n[nH]c4ncccc34)n2)CCNCC1` [Compound 83], the Ki at PKC theta kinase was under 50 nM; on PKC alpha kinase, under 2800 nM; at PKC delta kinase it was under 500 nM.
Turning to `CC(C)C[C@H]1CN(c2ccc(C(F)(F)F)c(-c3n[nH]c4ncccc34)n2)CC[C@H]1N` [Compound 84], the Ki is under 50 nM on PKC theta kinase, under 2800 nM at PKC alpha kinase and under 500 nM at PKC delta kinase.
As to `CC(C)C[C@H]1CN(c2ccc(C(F)(F)F)c(-c3n[nH]c4ncccc34)n2)CC[C@@H]1N` [Compound 85], the results for the Ki on PKC theta kinase, at PKC alpha kinase and at PKC delta kinase were under 500 nM, over 1250 nM and over 2000 nM, respectively.
